Source: PubChem BioAssay (NCI)
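48-hour exposure; five concentrations; linearly interpolated endpoints. Abbreviation: GI50, concentration required for 50% inhibition of growth. TGI denotes the concentration required for complete inhibition of growth.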

Assays:
Assay in all cases: DTP human tumour cell line panel, 48 h
[1] = test system: EKVX NSCLC
[2] = test system: SF-268 CNS
[3] = test system: UACC-62 melanoma
[4] = test system: SK-MEL-28 melanoma
[5] = test system: MOLT-4 leukemia
[6] = test system: TK-10 renal
[7] = test system: CAKI-1 renal
[8] = test system: NCI-H226 lung
[9] = test system: NCI/ADR-RES ovarian
[10] = test system: BT-549 breast

| SMILES | TGI [1] [µM] | TGI [2] [µM] | TGI [3] [µM] | TGI [4] [µM] | TGI [5] [µM] | TGI [6] [µM] | TGI [7] [µM] | TGI [8] [µM] | GI50 [8] [µM] | GI50 [1] [µM] | GI50 [9] [µM] | TGI [9] [µM] | GI50 [2] [µM] | GI50 [3] [µM] | GI50 [4] [µM] | GI50 [5] [µM] | GI50 [6] [µM] | GI50 [10] [µM] | TGI [10] [µM] | GI50 [7] [µM] |
| --- | --- | --- | --- | --- | --- | --- | --- | --- | --- | --- | --- | --- | --- | --- | --- | --- | --- | --- | --- | --- |
| CC1CCC(C(C)C)C(O[C@@H]2OC(=O)C[C@@H]2Sc2ccccc2)C1 (stereo partly drawn) | 93.6 | > 100 | > 100 | 85.7 | 32 | > 100 | 63.6 |  |  |  |  |  |  |  |  |  |  |  |  |  |
| COc1cc(C)c(O)c(C(=O)O)c1 |  | > 100 | > 100 | > 100 | > 100 | > 100 | > 100 | > 100 |  |  |  |  |  |  |  |  |  |  |  |  |
| CC(=O)Nc1ccc(/C=C/C(=O)c2sc(-c3nc(C)c(C(=O)/C=C/c4ccc(NC(C)=O)cc4)s3)nc2C)cc1 | > 100 |  | > 100 | > 100 | > 100 | > 100 | > 100 | > 100 |  |  |  |  |  |  |  |  |  |  |  |  |
| CCOC(=O)c1nc(-c2ccccc2)oc1OCC | 38.6 | > 100 | > 100 | > 100 | > 100 | > 100 |  | > 100 |  |  |  |  |  |  |  |  |  |  |  |  |
| CCOC(=O)C1=C(Nc2cccc3ccccc23)OC/C1=N\NC(=O)c1ccccc1O | > 82.7 | > 100 | 48.9 | > 100 | 53.5 | > 100 | 80.2 | > 100 |  |  |  |  |  |  |  |  |  |  |  |  |
| COc1cc(C(=O)/C=C/c2cccnc2Nc2ccccc2)cc(OC)c1OC | 3.04 | 3.09 | 2.6 | 2.93 | 19.5 | 3.33 |  | 2.58 | 1.23 | 1.61 | 1.03 | 4.56 | 1.55 | 1.29 | 1.58 | 2.68 | 1.82 | 1.26 | 2.54 |  |
| Nc1c(C(=O)Nc2ccccc2)sc2nc3c(cc12)CN(Cc1ccccc1)CC3 |  | > 100 | > 100 | > 100 | > 100 | 54.7 | > 100 | > 100 | 4.91 |  | 16.3 | > 100 | 5.62 | 13.9 | 23.2 | 31.3 | 4.09 | 16.8 | 92.3 | 19.7 |
| CCCOC(=O)CCn1c(SC)nc2[nH]cc(-c3ccccc3)c2c1=O | > 100 | > 100 | 26.5 | 58.8 | 15.1 | > 100 | 54 | 61.2 | 18.9 | 33.9 | 25.4 | > 100 | 14.5 | 11.7 | 20.3 | 1.16 | 47.3 |  |  | 19.6 |
| COC(=O)C1=C(OC(=O)c2ccc(Cl)cc2)C(C(=O)OC)[C@@]2(O)[C@@H](C(=O)OC)C(c3ccccc3Cl)C[C@@H]1[C@@H]2C(=O)OC (stereo partly drawn) | > 100 | > 100 | 4.81 | > 100 | 34.6 | > 100 | 7.35 |  |  | 6.17 | 3.41 | > 100 | 5.41 | 2.21 | 30.1 | 3.54 | 8 | 5.47 | > 100 | 2.09 |
| O=C(Nc1nc(=S)c2c(ncn2CCO)[nH]1)c1ccccc1 | > 100 | > 100 | > 100 |  |  | > 100 | > 100 | > 100 |  |  |  |  |  |  |  |  |  |  |  |  |
| COC(=O)C1=C(C(=O)OC)SC(=C(N=Nc2ccccc2)c2ccccc2)S1 | > 100 | > 100 | > 100 | > 100 | > 100 | > 100 | > 100 | > 100 |  |  |  |  |  |  |  |  |  |  |  |  |
| O=C(CCc1cc(-c2ccccc2)nc(=S)[nH]1)Nc1ccccc1[N+](=O)[O-] | > 100 | > 100 | > 100 | > 100 | > 100 | > 100 | > 100 | > 100 |  |  |  |  |  |  |  |  |  |  |  |  |
| C=CCC(OCCOCC)c1cc(OCCOCC)ccc1OC (stereo not drawn) | > 100 | > 100 | > 100 | > 100 | > 100 | > 100 | > 100 | > 100 |  |  |  |  |  |  |  |  |  |  |  |  |
| COC(=O)C1=C(O)c2cc3c(cc2[C@H](c2cc(OC)c(OC)c(OC)c2)C1C(=O)OC)OCO3 (stereo partly drawn) | > 100 | > 100 | 99.4 | > 100 | > 100 | 89.5 | 89.6 | > 100 |  |  |  |  |  |  |  |  |  |  |  |  |
| CS/C(C)=N/OC(=O)NCCCCNc1ccc(N=[N+]=[N-])cc1 | > 100 | > 100 | 89.4 | > 100 | > 100 | > 100 | > 100 | > 100 |  |  |  |  |  |  |  |  |  |  |  |  |
| O=C(COc1cccc(/C=C2\COc3ccc(Cl)cc3C2=O)c1)c1ccc(Cl)cc1 | 25.8 | 26.9 | 23.1 | 32.2 | 24.3 | 28.7 | 24.5 | 31.2 | 14.1 | 12.5 | 20.5 | 69.6 | 13.9 | 11 | 18.3 | 5.95 | 15.1 |  |  | 12.1 |
| COc1cc(/C=C/C(=O)c2sc(NNC(C)=O)nc2C)ccc1O | > 100 | > 100 | > 100 | > 100 | > 100 | > 100 | > 100 | > 100 |  |  |  |  |  |  |  |  |  |  |  |  |
| C[C@@H](NC1CCC[C@H]1O)c1ccccc1 (stereo partly drawn) | > 100 |  | > 100 | > 100 | > 100 | > 100 | > 100 | > 100 |  |  |  |  |  |  |  |  |  |  |  |  |
| CCCCNC(=O)NS(=O)(=O)c1ccc(N2N=C(c3cc(C)ccc3C)CC2c2cc(OC)c(OC)c(OC)c2)cc1 (stereo not drawn) |  | 11.7 | 4.27 | 4.73 | 8.89 | 10.7 | 12.7 | 13 | 3.29 |  | 2.95 | 11.4 | 3.16 | 1.83 | 1.97 | 2.74 | 3.44 | 2.73 | 9.28 | 3.07 |
| O=C1NC2C=CN(Cc3ccccc3)C=C2C(=O)N2CCCC12 (stereo not drawn) | > 100 | > 100 | > 100 | > 100 | > 100 | > 100 | > 100 | > 100 |  |  |  |  |  |  |  |  |  |  |  |  |
